Source: patent publication US20020012721A1, “Cooked cereal ingredient-containing products fortified with non-ferric edta and insoluble iron compositions and methods for use” (priority 1998, published 2002)

Legend:
[1] = Iron absorption from fortified corn flakes with milk in women, from radioactivity in circulating erythrocytes; assay type: in vivo; conditions: 30 g corn flakes with 150 ml milk, percent iron absorbed normalized by reference dose of ferrous ascorbate
Protocol: An experiment was conducted to validate the effectiveness of combining reduced iron with a non-ferric EDTA salt. Six sources of iron were compared in a study conducted on women.
The study was performed using a serving of corn flakes, approximately 30 g, with the addition of 150 ml lactose free UHT-treated 2% fat cow's milk. The percentage of iron absorbed by the test subjects was determined from radioactivity present in the circulating erythrocytes. Labeled ^59FeCl3 was used as a tracer in the reference dose of ferrous ascorbate and in the treatments containing FeSO4. Labeled ^55FeCl3 was used as a tracer in the treatments containing elemental reduced iron. The percentage of iron absorbed by the test subjects was normalized by the reference dose of ferrous ascorbate.

[2] = Rat hemoglobin repletion method: iron bioavailability of iron phosphate alone or with Na2EDTA versus FeSO4 in rat diet/Corn Flakes; assay type: in vivo, Sprague Dawley rats; conditions: rats; for Percent Absorption Relative to FeSO4: calculated from the slopes; for Slope: hemoglobin gain versus diet iron concentration, common intercept, letters mark estimates that do not differ (P < .10)
Protocol: An additional study was performed to determine the bioavailability of iron phosphate when combined with Na2EDTA. The relative iron bioavailability of the various iron containing compositions in a ready-to-eat cereal product was assayed using a widely accepted method, commonly referred to as the rat hemoglobin repletion method, (modified AOAC method for assessment of relative iron bioavailability), see Williams, S. ed. Official methods of analysis of the Association of Official Analytical Chemists, 14th ed. Arlington, Va. AOAC, 1984; Fritz, J. C. et al., Collaborative Study of rat hemoglobin repletion test for bioavailability of iron, AOAC 1974, 57:513-517. Relative bioavailability of the various iron:EDTA composition was carried out in a series of separate experiments. In each of these experiments, ferrous sulfate was used as the standard or control compound.
Sprague Dawley rats, individually housed in temperature and light controlled units, were fed an iron deficient diet obtained from Harland Tekland Laboratories for 24 days. After this iron depletion phase, the rats were weighed and blood was drawn to test for baseline hemoglobin concentrations. These anemic animals, with hemoglobin levels between […], were then randomly assigned to the control and test groups. Ferrous sulfate, iron phosphate, and iron phosphate with Na2EDTA were separately added to the test diets to achieve concentrations of 6 and 18 and 24 mg iron/kg diet. These diets were then fed to groups of ten animals, ad libitum, for 14 days. Iron levels in the diets, were verified by atomic absorption spectrometry (Blin et al., J. Assoc. Off. Anal. Chem. 1977, 60:1170-1174). After the 14-day test period, hemoglobin concentrations were determined for all animals.
The iron bioavailability of each iron source, assayed relative to ferrous sulfate, was calculated using the slope ratio procedure by comparing the gain in hemoglobin concentration with the iron concentration in the diet (Finney, D. J., Statistical methods in biological assay.2nd ed. 1964; Amine et L., Biological assessment of available iron in food products, J. Agric. Food Chem. 1974, 22:470-476). […] The percent absorption relative to FeSO4 was calculated from the slopes determined from each experiment.
An additional test was conducted feeding rats a purified rat diet/Corn Flakes® fortified with iron phosphate either alone or in combination with Na2EDTA or mixtures of both. […] As described above the bioavailability was determined by assaying the relative change in hemoglobin in rats fed with the various fortified diets with the recommended daily allowance for humans of iron content (RDA).
Three test diets were evaluated: […]

O=S(=O)([O-])[O-].[Fe+2] [(a) FeSO4, FeSO4]
Normalized Absorption ([1]; 25% Daily Value iron): 11.4%
Percent Absorption Relative to FeSO4 [2]: 100%
Slope [2]: 0.30 (c)

O=S(=O)([O-])[O-].[Fe+2] [(b) FeSO4, FeSO4]
Normalized Absorption ([1]; 50% Daily Value iron): 6.9%

O=P([O-])([O-])[O-].[Fe+3] [B) FePO4, FePO4]
Percent Absorption Relative to FeSO4 [2]: 33%
Slope [2]: 0.10 (a)
